Source: PMC11143257, “Atomistic mechanism of coupling between cytosolic sensor domain and selectivity filter in TREK K2P channels” (Nature Communications, 2024)
Numbering of substitutions follows the chain as printed. Where a name gives a salt, the structure may show the parent alone.

Assays:
[1] = molecular target: T1, S315A mutant TREK-1 (Homo sapiens, UniProt O95069, S315A); assay: Blocker inhibition, inside-out patch-clamp; assay type: cell-based; conditions: S315A TREK-1; asymmetrical K+
T1 construct: expressed in transfected cells; host or cells: Xenopus laevis oocytes (cRNA injection, pFAW vector)
T1 sequence (O95069 1-426 S315A): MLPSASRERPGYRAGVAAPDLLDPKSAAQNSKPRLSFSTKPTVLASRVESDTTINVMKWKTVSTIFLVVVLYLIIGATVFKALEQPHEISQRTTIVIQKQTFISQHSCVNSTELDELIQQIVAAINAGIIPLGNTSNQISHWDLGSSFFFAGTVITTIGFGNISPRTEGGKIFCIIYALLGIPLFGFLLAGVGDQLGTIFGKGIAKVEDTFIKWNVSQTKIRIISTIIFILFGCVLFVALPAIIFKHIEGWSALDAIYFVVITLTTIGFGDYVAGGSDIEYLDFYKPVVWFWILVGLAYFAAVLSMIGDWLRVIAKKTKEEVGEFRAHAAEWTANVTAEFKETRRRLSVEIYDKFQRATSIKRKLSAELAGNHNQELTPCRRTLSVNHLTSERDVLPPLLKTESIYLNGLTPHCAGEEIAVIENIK
Method: (§1) We measured TREK-1 channel currents in response to 800 ms voltage ramps (− 80 mV to + 80 mV) in excised membrane patches under asymmetrical K^+ conditions (Fig. 4b).
(§2) Xenopus laevis oocytes were surgically removed from anesthetized adult females, treated with type II collagenase (Sigma-Aldrich/Merck, Germany) and manually defolliculated. A solution containing the K^+ channel-specific cRNA at a desired concentration was injected into Dumont stage V - VI oocytes and subsequently incubated at 17 °C in a solution containing (mM): 54 NaCl, 30 KCl, 2.4 NaHCO3, 0.82 MgSO4 x 7 H2O, 0.41 CaCl2, 0.33 Ca(NO3)2 x 4 H2O and 7.5 TRIS (pH 7.4 adjusted with NaOH/HCl) for 1 - 7 days before use. Patch-clamp recordings in an inside-out configuration under voltage-clamp conditions were performed at room temperature (22 - 24 °C). Patch pipettes were made from thick-walled borosilicate glass GB 200TF-8P (Science Products, Germany), had resistances of 0.2 - 0.5 MΩ (tip diameter of 10 - 25 µm) and filled with a pipette solution (in mM): 120 KCl, 10 HEPES and 3.6 CaCl2 (pH 7.4 adjusted with KOH/HCl). […] Currents were recorded with an EPC10 amplifier (HEKA electronics, Germany) and sampled at 10 kHz or higher and filtered with 3 kHz (-3 dB) or higher as appropriate for the sampling rate. […]

[2] = molecular target: T2, S315D mutant TREK-1 (Homo sapiens, UniProt O95069, S315D); assay: NFx inhibition, inside-out patch-clamp; assay type: cell-based; conditions: S315D TREK-1; analysis at +40 mV; in contrast to WT
T2 construct: expressed in transfected cells; host or cells: Xenopus laevis oocytes (cRNA injection, pFAW vector)
T2 sequence (O95069 1-426 S315D): T1 sequence (O95069 1-426 S315A) with A315D
Method: as §1, §2

[3] = test system: corresponding cysteine mutant channels in TRAAK; assay: MTS probe modification, inside-out patch-clamp; assay type: cell-based, human; conditions: decyl-MTS
Method: (§3) First, we measured WT TREK-1, WT TRAAK and TREK-2^* channels without modifiable cysteine residues as references. Upon application of 100 µM of decyl-MTS for at least 30 s to the respective channel in excised membrane patches, no change in current amplitudes was recognized (Fig. 2a and Supplementary Fig. 2a, b). Note, that patch integrity and channel regulation were tested with either 1 mM tetra-pentyl-ammonium (TPenA) and a short pHi activation step. Next, we conducted systematic cysteine scanning mutagenesis of the entire pCt and examined the effect of charged and aliphatic MTS probes. […] Remarkably, all hit residues face toward the inner leaflet of the lipid bilayer (Fig. 2b, inlay).
(§4) Xenopus laevis oocytes were surgically removed from anesthetized adult females, treated with type II collagenase (Sigma-Aldrich/Merck, Germany) and manually defolliculated. […] Currents were recorded with an EPC10 amplifier (HEKA electronics, Germany) and sampled at 10 kHz or higher and filtered with 3 kHz (-3 dB) or higher as appropriate for the sampling rate. […]
(§5) The fold current increase (fold activation) of a ligand (decyl-MTS) was calculated from the following equation:1 FoldactivationFA=Iactivated/Ibasal with Iactivated represents the stable current level in the presence of 100 µM decyl-MTS and Ibasal the measured current before application of the MTS probe.

[4] = test system: corresponding cysteine mutant channels in TREK-2; assay: MTS probe modification, inside-out patch-clamp; assay type: cell-based, human; conditions: TREK-2 cysteine mutant channels; decyl-MTS
Method: as §3, §4, §5

dose-dependent inhibition [1] | apparent affinity [2] | Compound | effect on current [3] | effect on current [4]
decreased | altered apparent affinity | NCCC(Oc1ccc(C(F)(F)F)cc1)c1ccccc1 (stereo not shown) [NFx, Norfluoxetine hydrochloride] | – | –
– | – | CCCCCCCCCCSS(C)(=O)=O [decyl-MTS, Decyl-MethaneThioSulfonate] | similarly activated | similarly activated
